Source: patent US6387955B1, “Enhanced anti-angiogenic activity of permanently charged derivatives of steroid hormones” (Pharmos Corporation, priority 1997, dated 2002)

Columns and labels:
MCF-7 tumors [1] = assay: Tumor necrosis in MCF-7 tumors by T2-weighted MRI; format: in vivo, nude mice
Protocol: (§1) Female CD1-nu/nu athymic mice (6 weeks old) were obtained from the Weizmann Institute Department of Animal Services. MCF-7 cells, serially passed as described above, were detached from the culturing flasks with 0.03% EDTA in phosphate buffered saline (PBS) and washed several times in normal saline. Cells (10^7/innoculum) were then injected into the ventral fat pad at the level of the breast. Coincident with cell introduction, a slow-release pellet of estradiol (0.72 mg/pellet, 45-day release profile; Innovative Research, Sarasota, Fla.) was implanted subcutaneously in the flank of the animal. Mice were anesthetized with ketamine/Rompun (i.p.) for the surgical procedures. […] At this point, animals were randomized into four study groups. In the first, the estrogen pellet was removed and replaced with a slow-release TMI-laden pellet (6.3 mg, 45-day release) (n=5). In the second group, the estrogen pellet was removed and replaced with a tamoxifen pellet (n=7). The third group was treated with a blank (placebo) pellet (n=5), while the fourth group was reimplanted with an estradiol pellet (n=4). TMI and placebo-treated animals were imaged (under ketamine/Rompun anesthesia) either immediately before pellet exchange (day 0) or at day 3, 6, 12 and 25 after pellet exchange.
(§2) MRI images were recorded with a Bruker 4.7 (tesla)/30 Biospec spectrometer (Bruker Medizintechnik, Rheinstetten, Germany). 1H Spin-echo images were recorded at 200.12 MHz using a custom-made 4.5 cm rf coil with an image data matrix of 256×128 pixels. Pilot scans of the tumors were completed using a fast transverse multi-slice spin-echo sequence (giving T1-weighted spectra; inter-echo time (TE)=16 msec, recovery time (TR)=500 msec) followed by T2-weighted sequences in which axial slices perpendicular to the spine (i.e., a coronal orientation) were recorded. In the latter case, spin-echo images were obtained using a 4 cm field of view, 1 mm slice thickness, 1.2 mm slice-to-slice distance and a four-sequence average. The TE and TR were optimized to provide the best image contrast generating values of 80 and 3200 msec, respectively. This gave a total imaging time of approximately 30 min. Under the conditions reported, the in-plane resolution was 155×310 μm. Tumor size was calculated using a slice-to-slice reconstruction in which the slice surface area was obtained from histograms provided by the resident Bruker software package using the following relationship:
where XSA is the cross-sectional area of an internal slice, ES is the cross-sectional area of an edge slice, l is the slice thickness and ssd is the distance from the middle of one slice to the middle of the next. For image analysis, the average pixel intensity of viable portions of MCF-7 tumors was determined from a central tumor slice using histograms generated by the dedicated Bruker software package. […] Fibrosis was defined as those areas manifesting a decrease in pixel intensity of […].
In vivo tumor histology was assessed for TMI and placebo-treated tumors using T2-weighted MR images. […] At this time, the area of necrosis was two-fold higher than that observed on day 0 (increasing from an average of 20% to approximately 40%).

MCF-7 tumors [2] = assay: Growth of MCF-7 tumors implanted in ventral fat pad of nude mice, tumor size by MRI; format: in vivo; conditions: TMI pellet 6.3 mg 45-day release, 25 day time course
Protocol: as §1
as §2, with “Under the conditions reported, the in-plane resolution was 155×310 μm.” left out, “relationship: […]” for “relationship:”
where XSA is the cross-sectional area of an internal slice, ES is the cross-sectional area of an edge slice, l is the slice thickness and ssd is the distance from the middle of one slice to the middle of the next. For image analysis, the average pixel intensity of viable portions of MCF-7 tumors was determined from a central tumor slice using histograms generated by the dedicated Bruker software package. […]

Tolerability in mice = format: in vivo; conditions: mice
MCF-7 tumors [3] = assay: Capillary density in MCF-7 tumor sections by microscopic morphometry; format: in vivo, nude mice; conditions: viable regions only
Protocol: Tumors from TMI-treated animals and from placebo-treated animals were removed after cervical dislocation. Tumors were treated with a biological dye (Davidson Marking Systems, Bradley Products, Bloomington, Minn.) so that histological sections could be oriented in the same direction as MRI slice images. The histological plane corresponding to the central slice of the MRI study was established by a single cut through the tumor. This plane was based on the position of the tumor in the spectrometer, sagittal, transverse and coronal images and anatomical landmarks. The bisected tumors were fixed in 10% formalin, dehydrated in 70% ethanol, blocked in paraffin. 4 μm histological sections were cut, placed on slides and stained with either hematoxylin-eosin or a modified trichrome method. Hematoxylin-eosin was used to assess viability, necrosis and pigmentation. The modified trichrome method was applied to the identification of fibrotic regions (i.e., the dye stains for mucopolysaccharides).
Vascular density was determined using two techniques: by morphometric analysis of histological sections and by image analysis of GSL-1 lectin stained sections. […] In each field, the number of grid squares containing capillaries, as defined by either the presence of red blood cells or a distinct endothelial cell, were recorded. […]

## CC/C(=C(\c1ccccc1)c1ccc(OCC[N+](C)(C)C)cc1)c1ccccc1 [TMI, Tamoxifen methiodide]
MCF-7 tumors [1]; day 3 after pellet exchange
  total area of necrosis, day three average: 72%
MCF-7 tumors [1]; preliminary comparison of TMI and tamoxifen
  maximum extent of necrosis: 72%
MCF-7 tumors [1]; sampling day after pellet exchange
  onset of tumor necrosis: 3 days
MCF-7 tumors [2]
  tumor regression (average shrinking): 20%
Tolerability in mice
  tolerability: well tolerated
MCF-7 tumors [3]
  reduction in capillary area compared with the placebo: 50%
